The structures appear in SMILES notation.

One assay deals with T1, KRAS G12C 1-169, his-tagged protein, GDP-loaded (Homo sapiens, UniProt P01116, G12C).
T1 construct: KRAS G12C 1-169, his-tagged protein, GDP-loaded
Put plainly: Biochemical assay: covalent modification of KRAS G12C measured by mass spectrometry (RapidFire/TOF or Q-Exactive). Also: time not given here. The assay is classed as binding. The following applies: tested at 32 μM. The gist of the method: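 GDP-loaded KRAS G12C 1-169 (his-tagged, 2 μM or 0.5 μM in 20 mM Hepes, 150 mM NaCl, 1 mM MgCl2) reacted with compound at 32 μM or 8 μM final, then quenched with formic acid. Intact-protein LC-MS (RapidFire/TOF or Q-Exactive) with charge-envelope deconvolution; % modification from modified vs unmodified peak intensities.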
`C=CC(=O)N1CCC2(CCN(c3cc(OCc4ccccn4)cc(-c4c(C)ccc5[nH]ncc45)c3C#N)C2)C1` (stereo not shown) [Compound I-61, 2-(7-acryloyl-2,7-diazaspiro[4.4]nonan-2-yl)-6-(5-methyl-1H-indazol-4-yl)-4-(pyridin-2-ylmethoxy) benzonitrile]: the Bind % result was “+ (+ indicates binding activity greater than 0% and up to 50%)”.

With `C=CC(=O)N1CCC2(CCCN(c3cc(OCc4ccccn4)cc(-c4c(C)ccc5[nH]ncc45)c3C#N)C2)C1` (stereo not shown) [Compound I-62, 2-(2-acryloyl-2,7-diazaspiro[4.5]decan-7-yl)-6-(5-methyl-1H-indazol-4-yl)-4-(pyridin-2-ylmethoxy) benzonitrile], the Bind % entry is “+ (+ indicates binding activity greater than 0% and up to 50%)”.

For `CC#CC(=O)N1CCC2(CCCN(c3cc(OCc4ccccn4)cc(-c4c(C)ccc5[nH]ncc45)c3C#N)C2)C1` (stereo not shown) [Compound I-63, 2-(2-(but-2-ynoyl)-2,7-diazaspiro[4.5]decan-7-yl)-6-(5-methyl-1H-indazol-4-yl)-4-(pyridin-2-ylmethoxy) benzonitrile], the Bind % entry is “+ (+ indicates binding activity greater than 0% and up to 50%)”. On the same count and under the same terms, then `CC#CC(=O)N1CCC2(CC1)CN(c1cc(OCc3ccccn3)cc(-c3c(C)ccc4[nH]ncc34)c1C#N)C2` [Compound I-64, 2-(7-(but-2-ynoyl)-2,7-diazaspiro[3.5]nonan-2-yl)-6-(5-methyl-1H-indazol-4-yl)-4-(pyridin-2-ylmethoxy) benzonitrile], with “+ (+ indicates binding activity greater than 0% and up to 50%)”. Still for that read-out and setting: for `C=CC(=O)N1CCC2(CC1)CN(c1cc(OCc3ccccn3)cc(-c3c(C)ccc4[nH]ncc34)c1C#N)C2` [Compound I-65, 2-(7-acryloyl-2,7-diazaspiro[3.5]nonan-2-yl)-6-(5-methyl-1H-indazol-4-yl)-4-(pyridin-2-ylmethoxy) benzonitrile] the value was “+ (+ indicates binding activity greater than 0% and up to 50%)”.

For `C=CC(=O)N1CCCC2(C1)CN(c1cc(OCc3ccccn3)cc(-c3c(C)ccc4[nH]ncc34)c1C#N)C2` [Compound I-66, 2-(6-acryloyl-2,6-diazaspiro[3.5]nonan-2-yl)-6-(5-methyl-1H-indazol-4-yl)-4-(pyridin-2-ylmethoxy) benzonitrile], the Bind % entry is “+ (+ indicates binding activity greater than 0% and up to 50%)”. Still for that read-out and setting: for `CC#CC(=O)N1CCCC2(C1)CN(c1cc(OCc3ccccn3)cc(-c3c(C)ccc4[nH]ncc34)c1C#N)C2` [Compound I-67, 2-(6-(but-2-ynoyl)-2,6-diazaspiro[3.5]nonan-2-yl)-6-(5-methyl-1H-indazol-4-yl)-4-(pyridin-2-ylmethoxy) benzonitrile] the value was “+ (+ indicates binding activity greater than 0% and up to 50%)”. Still for that read-out and setting: then `Cc1ccc2cnn(C)c2c1-c1cc(N2CCCC(O)C2)cc(N2CCC3(CN(C(=O)/C=C/CN(C)C)C3)C2)c1C#N` (stereo not shown) [Compound I-69, (E)-2-(1,6-dimethyl-1H-indazol-7-yl)-6-(2-(4-(dimethylamino)but-2-enoyl)-2,6-diazaspiro[3.4]octan-6-yl)-4-(3-hydroxypiperidin-1-yl)benzonitrile], with “+ (+ indicates binding activity greater than 0% and up to 50%)”.

With `Cc1ccc2[nH]ncc2c1-c1cc(N2CCCC(O)C2)cc(N2CCC3(CN(C(=O)/C=C/CN(C)C)C3)C2)c1C#N` (stereo not shown) [Compound I-70, (E)-2-(2-(4-(dimethylamino)but-2-enoyl)-2,6-diazaspiro[3.4]octan-6-yl)-4-(3-hydroxypiperidin-1-yl)-6-(5-methyl-1H-indazol-4-yl)benzonitrile], the Bind % entry is on record as “++ (++ indicates binding activity from 50 to 75%)”. Take `CC#CC(=O)N1CC2(C1)CN(c1cc(OCc3ccccn3)cc(-c3c(C)ccc4[nH]ncc34)c1C#N)C2` [Compound I-73, 2-(6-(but-2-ynoyl)-2,6-diazaspiro[3.3]heptan-2-yl)-6-(5-methyl-1H-indazol-4-yl)-4-(pyridin-2-ylmethoxy) benzonitrile]: the Bind % entry is “+ (+ indicates binding activity greater than 0% and up to 50%)”. The same measure, in the same setting: then `CC#CC(=O)N1CCCC2(CCN(c3cc(OCc4ccccn4)cc(-c4c(C)ccc5[nH]ncc45)c3C#N)C2)C1` (stereo not shown) [Compound I-74, 2-(7-(but-2-ynoyl)-2,7-diazaspiro[4.5]decan-2-yl)-6-(5-methyl-1H-indazol-4-yl)-4-(pyridin-2-ylmethoxy) benzonitrile], with “+ (+ indicates binding activity greater than 0% and up to 50%)”.

Take `C=CC(=O)N1CCCC2(CCN(c3cc(OCc4ccccn4)cc(-c4c(C)ccc5[nH]ncc45)c3C#N)C2)C1` (stereo not shown) [Compound I-75, 2-(7-acryloyl-2,7-diazaspiro[4.5]decan-2-yl)-6-(5-methyl-1H-indazol-4-yl)-4-(pyridin-2-ylmethoxy) benzonitrile]: the Bind % result was “+ (+ indicates binding activity greater than 0% and up to 50%)”. Same read-out and setting: for `C=CC(=O)N1CC2(CCCN(c3cc(OCc4ccccn4)cc(-c4c(C)ccc5[nH]ncc45)c3C#N)C2)C1` [Compound I-78, 2-(2-acryloyl-2,6-diazaspiro[3.5]nonan-6-yl)-6-(5-methyl-1H-indazol-4-yl)-4-(pyridin-2-ylmethoxy) benzonitrile] the value was “+ (+ indicates binding activity greater than 0% and up to 50%)”; for `CC#CC(=O)N1CC2(CCCN(c3cc(OCc4ccccn4)cc(-c4c(C)ccc5[nH]ncc45)c3C#N)C2)C1` [Compound I-79, 2-(2-(but-2-ynoyl)-2,6-diazaspiro[3.5]nonan-6-yl)-6-(5-methyl-1H-indazol-4-yl)-4-(pyridin-2-ylmethoxy) benzonitrile], “+ (+ indicates binding activity greater than 0% and up to 50%)”. Regarding `C=CC(=O)N1CC2(CCN(c3cc(N4CCC(O)CC4)cc(-c4c(C)ccc5[nH]ncc45)c3C#N)CC2)C1` [Compound I-81, 2-(2-acryloyl-2,7-diazaspiro[3.5]nonan-7-yl)-4-(4-hydroxypiperidin-1-yl)-6-(5-methyl-1H-indazol-4-yl)benzonitrile], the Bind % result is “+ (+ indicates binding activity greater than 0% and up to 50%)”. On to `C=CC(=O)N1CC2(CCN(c3cc(N4CCC(N5CCN(C)[C@@H](C)C5)CC4)cc(-c4c(C)ccc5[nH]ncc45)c3C#N)CC2)C1` [Compound I-82, 2-(2-acryloyl-2,7-diazaspiro[3.5]nonan-7-yl)-4-(4-((S)-3,4-dimethyl-piperazin-1-yl)piperidin-1-yl)-6-(5-methyl-1H-indazol-4-yl)benzonitrile], for which the Bind % result was “+ (+ indicates binding activity greater than 0% and up to 50%)”.

For `C=CC(=O)N1CC2(CCN(c3ccc(OCCCN(C)C)c(-c4c(C)ccc5[nH]ncc45)c3C#N)CC2)C1` [Compound I-83, 6-(2-acryloyl-2,7-diazaspiro[3.5]nonan-7-yl)-3-(3-(dimethylamino)propoxy)-2-(5-methyl-1H-indazol-4-yl)benzonitrile], the Bind % entry was “+ (+ indicates binding activity greater than 0% and up to 50%)”. For `C=CC(=O)N1CC2(CCN(c3cc(N4CCOCC4)c(OC)c(-c4c(C)ccc5[nH]ncc45)c3C#N)CC2)C1` [Compound I-84, 6-(2-acryloyl-2,7-diazaspiro[3.5]nonan-7-yl)-3-methoxy-2-(5-methyl-1H-indazol-4-yl)-4-morpholino-benzonitrile], the Bind % entry is “+ (+ indicates binding activity greater than 0% and up to 50%)”.

With `C=CC(=O)N1CC2(CCN(c3ccc(Cl)c(-c4c(C)ccc5[nH]ncc45)c3C#N)CC2)C1` [Compound I-85, 6-(2-acryloyl-2,7-diazaspiro[3.5]nonan-7-yl)-3-chloro-2-(5-methyl-1H-indazol-4-yl)benzonitrile], the Bind % entry was “+ (+ indicates binding activity greater than 0% and up to 50%)”. On the same count and under the same terms, for `C=CC(=O)N1CCC2(CCN(c3ccc(F)c(-c4c(C)ccc5[nH]ncc45)c3C#N)CC2)C1` [Compound I-94, 6-(2-acryloyl-2,8-diazaspiro[4.5]decan-8-yl)-3-fluoro-2-(5-methyl-1H-indazol-4-yl)benzonitrile] the value was “+ (+ indicates binding activity greater than 0% and up to 50%)”.

Staying with this assay, now noted: tested at a concentration of 8 μM.
In the case of `Cc1ccc2[nH]ncc2c1-c1cc(OCc2ccccn2)cc(N2CCC3(CN(C(=O)/C=C/CN(C)C)C3)C2)c1C#N` [Compound I-60, (E)-2-(2-(4-(dimethylamino)but-2-enoyl)-2,6-diazaspiro[3.4]octan-6-yl)-6-(5-methyl-1H-indazol-4-yl)-4-(pyridin-2-ylmethoxy) benzonitrile], the Bind % entry is “+ (+ indicates binding activity greater than 0% and up to 50%)”.

`C=CC(=O)N1CC2(CCN(c3cc(OCc4ccccn4)cc(-c4c(C)ccc5[nH]nc(C)c45)c3C#N)C2)C1` [Compound I-71, 2-(2-acryloyl-2,6-diazaspiro[3.4]octan-6-yl)-6-(3,5-dimethyl-1H-indazol-4-yl)-4-(pyridin-2-ylmethoxy) benzonitrile]: the Bind % result is listed as “+++ (+++ indicates binding activity greater than 75%)”. On the same count and under the same terms, for `C=CC(=O)N1CC2(C1)CN(c1cc(OCc3ccccn3)cc(-c3c(C)ccc4[nH]ncc34)c1C#N)C2` [Compound I-72, 2-(6-acryloyl-2,6-diazaspiro[3.3]heptan-2-yl)-6-(5-methyl-1H-indazol-4-yl)-4-(pyridin-2-ylmethoxy) benzonitrile] the value was “+++ (+++ indicates binding activity greater than 75%)”. The same measure, in the same setting: for `C=CC(=O)N1CC2(CCN(c3cc(N4CCCC(O)C4)cc(-c4c(C)ccc5[nH]nc(C)c45)c3C#N)C2)C1` (stereo not shown) [Compound I-76, 2-(2-acryloyl-2,6-diazaspiro[3.4]octan-6-yl)-6-(3,5-dimethyl-1H-indazol-4-yl)-4-(3-hydroxypiperidin-1-yl)benzonitrile] the value was “++ (++ indicates binding activity from 50 to 75%)”; for `C=CC(=O)N1CC2(CCN(c3cc(N4CCOCC4)c(F)c(-c4c(C)ccc5[nH]ncc45)c3C#N)CC2)C1` [Compound I-80, 6-(2-acryloyl-2,7-diazaspiro[3.5]nonan-7-yl)-3-fluoro-2-(5-methyl-1H-indazol-4-yl)-4-morpholino-benzonitrile], “+ (+ indicates binding activity greater than 0% and up to 50%)”.
